Results as given in ChEMBL document CHEMBL4373702, “Intracellular Trapping of the Selective Phosphoglycerate Dehydrogenase (PHGDH) Inhibitor BI-4924 Disrupts Serine Biosynthesis” (J Med Chem, 2019).

Experiments:
[1] = target: T1, D-3-phosphoglycerate dehydrogenase (Homo sapiens, UniProt O43175); experiment: Inhibition of N-terminal His6-tagged human PHGDH (4 to 315 residues) assessed as effect on NADH fluorescence incubated for 2 hrs using 3-PG substrate in presence of 19 uM NAD+ and PSAT1 by diaphorase based luminescence assay
T1 sequence (O43175 whole entry): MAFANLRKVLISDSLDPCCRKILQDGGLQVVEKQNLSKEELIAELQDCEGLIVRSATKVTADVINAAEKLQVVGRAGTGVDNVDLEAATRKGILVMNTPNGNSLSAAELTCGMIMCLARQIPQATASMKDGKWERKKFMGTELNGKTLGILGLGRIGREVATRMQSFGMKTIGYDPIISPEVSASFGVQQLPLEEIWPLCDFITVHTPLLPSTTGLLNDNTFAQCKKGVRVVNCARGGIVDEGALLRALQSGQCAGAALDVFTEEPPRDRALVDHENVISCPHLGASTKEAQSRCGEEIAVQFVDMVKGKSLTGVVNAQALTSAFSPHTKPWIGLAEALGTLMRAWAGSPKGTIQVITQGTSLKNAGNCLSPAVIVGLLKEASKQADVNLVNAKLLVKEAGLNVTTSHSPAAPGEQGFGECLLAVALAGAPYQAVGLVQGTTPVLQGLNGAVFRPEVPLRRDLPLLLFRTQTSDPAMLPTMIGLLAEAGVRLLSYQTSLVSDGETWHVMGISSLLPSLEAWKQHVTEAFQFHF

[2] = target: T1, D-3-phosphoglycerate dehydrogenase; experiment: Inhibition of N-terminal His6-tagged human PHGDH (4 to 315 residues) assessed as effect on NADH fluorescence incubated for 2 hrs using 3-PG substrate in presence of 250 uM NAD+ and PSAT1 by diaphorase based luminescence assay
[3] = target: T1, D-3-phosphoglycerate dehydrogenase; experiment: Binding affinity to N-terminal His6-tagged human PHGDH (4 to 315 residues)by SPR assay
[4] = target: T1, D-3-phosphoglycerate dehydrogenase; experiment: Binding affinity to human PHGDH ( 1 to 533 residues) expressed in Escherichia coli Rosetta (DE3) by Sypro-orange dye based differential scanning fluorimetry
[5] = Drug uptake in human MDA-MB-468 cells assessed as BI-4924 levels at 3 uM measured up to 72 hrs; assay type: ADME, cell-based; conditions: mda-mb-468, 72 h, TDE = time-dependent effect
[6] = target: T1, D-3-phosphoglycerate dehydrogenase; experiment: Inhibition of PHGDH in human MDA-MB-468 cells assessed as reduction in [13C]-serine incubated for 72 hrs using [13C]glucose as substrate by LC-MS/MS analysis; assay type: cell-based
[7] = target: T1, D-3-phosphoglycerate dehydrogenase; experiment: Inhibition of PHGDH in human MDA-MB-468 cells assessed as reduction in [13C]-serine incubated for 1 hr using [13C]glucose as substrate by LC-MS/MS analysis; assay type: cell-based
[8] = Half life in mouse serum; assay type: ADME, cell-free
[9] = Drug uptake in human MDA-MB-468 cells assessed as BI-4924 levels at 3 uM measured up to 72 hrs relative to control; assay type: ADME, cell-based; conditions: mda-mb-468, 72 h
[10] = Half life in 10% fetal calf serum; assay type: ADME, cell-free, Bos taurus; conditions: cattle
[11] = target: T1, D-3-phosphoglycerate dehydrogenase; experiment: Inhibition of His6-tagged PHGDH (unknown origin) expressed in Escherichia coli BL21 assessed as effect on NADH fluorescence incubated for 60 mins using 3-PG as substrate in presence of 500 uM NAD+ and PSAT1 by diaphorase and resazurin dye based fluorescence assay

For `CC(NC(=O)c1cc(-c2ccccc2)nn1C)c1ccc(C(=O)O)cc1` (racemic), the IC50 [1] was 0.9 µM.
In the case of `C[C@@H](NC(=O)c1cc(-c2ccccc2)nn1C)c1ccc(N)cc1`, the IC50 [1] is reported as 38.1 µM.
`COc1cc(Cl)cc2cc(C(=O)N[C@H](C)c3ccc(C(=O)O)cc3)n(C)c12` gave an IC50 [1] of 0.072 µM and an IC50 [2] of 0.746 µM.
`Cn1c(C(=O)NC(C(=O)O)c2ccccc2)cc2cc(Cl)ccc21` (racemic) showed an IC50 [1] of over 100 µM.
Work on `C[C@@H](NC(=O)c1cc(-c2ccccc2)nn1C)c1ccc(N(CC(=O)O)S(C)(=O)=O)cc1` yielded an IC50 [1] of 1.4 µM.
Work on `C[C@@H](NC(=O)c1cc2ccccc2n1C)c1ccc(C(=O)O)cc1` yielded an IC50 [1] of 1.95 µM.
Molecule `C[C@@H](NC(=O)c1cc2cc(Cl)cc(OC(F)(F)F)c2n1C)c1ccc(C(=O)O)cc1` has an IC50 [1] of 0.824 µM and an IC50 [2] of 6.69 µM.
In the case of `COCC(NC(=O)c1cc2cc(Cl)ccc2n1C)c1ccccc1` (racemic), the IC50 [1] is reported as over 100 µM.
For `CC(NC(=O)c1cc(-c2ccccc2)nn1C)c1ccc(S(C)(=O)=O)cc1` (racemic), the IC50 [1] was 5.83 µM.
Molecule `C[C@@H](NC(=O)c1cc2cc(Cl)c(Br)cc2n1C)c1ccc(C(=O)O)cc1` has an IC50 [1] of 0.061 µM and an IC50 [2] of 0.341 µM.
`Cc1cc2c(cc1Cl)cc(C(=O)N[C@H](C)c1ccc(C(=O)O)cc1)n2C` gave an IC50 [1] of 0.051 µM and an IC50 [2] of 0.412 µM.
With `Cn1c(C(=O)Nc2cccc(C(=O)O)c2)cc2ccccc21` the Kd [3] was 144 µM.
`C[C@@H](NC(=O)c1cc2c(Cl)cc(C(F)F)cc2n1C)c1ccc(C(=O)O)cc1` gave an IC50 [1] of 0.081 µM and an IC50 [2] of 0.714 µM.
`C[C@@H](NC(=O)c1cc(-c2ccccc2)nn1C)c1ccc(N2C(=O)CNC2=O)cc1` showed an IC50 [1] of 2.3 µM.
`Cn1nc(-c2ccccc2)cc1C(=O)NCc1ccc(C(=O)O)cc1` showed an IC50 [1] of 5.7 µM.
Molecule `C[C@@H](NC(=O)c1cc(-c2ccccc2)nn1C)c1ccc(N2C[C@@H](O)[C@@H](O)C2)cc1` has an IC50 [1] of 5.2 µM.
Work on `CC(NC(=O)c1cc(-c2ccccc2)nn1C)c1ccc(C#N)cc1` (racemic) yielded an IC50 [1] of 33.7 µM.
`C[C@@H](NC(=O)c1cc(-c2ccccc2)nn1C)c1ccc(N2CCCS2(=O)=O)cc1` gave an IC50 [1] of 2.5 µM.
`Cn1nc(-c2ccccc2)cc1C(=O)NC1CC1` showed a Kd [3] of 105 µM.
`Cc1cc2c(cc(C(=O)N[C@H](C)c3ccc(S(=O)(=O)CC(=O)O)cc3)n2C)c(Cl)c1Cl` showed an IC50 [1] of 0.002 µM.
`CC(NC(=O)c1cc(-c2ccccc2)nn1C)c1ccc(S(N)(=O)=O)cc1` (racemic) gave an IC50 [1] of 4.3 µM.
In the case of `Cn1c(C(=O)N[C@@H](c2ccccc2)[C@@H](O)C(F)(F)F)cc2cc(Cl)ccc21` (relative stereo), the IC50 [1] is reported as over 100 µM.
For `CC(NC(=O)c1cc(-c2ccccc2)nn1C)c1ccc(CC(=O)O)cc1` (racemic), the IC50 [1] was 0.8 µM.
With `NC(=O)c1ccc(F)c(Cl)c1` the Kd [4] was 1500 µM.
With `C[C@@H](NC(=O)c1cc2c3ccccc3ccc2n1C)c1ccc(C(=O)O)cc1` the IC50 [1] was 0.058 µM and the IC50 [2] was 0.345 µM.
With `C[C@@H](NC(=O)c1cc(-c2ccccc2)nn1C)c1ccc(N2CCCC2=O)cc1` the IC50 [1] was 3.3 µM.
Work on `C[C@@H](NC(=O)c1cc(-c2ccccc2)nn1C)c1ccc(C(=O)O)cc1` yielded an IC50 [1] of 0.4 µM.
For `Cn1c(C(=O)N[C@@H](c2ccccc2)[C@H](O)C(F)(F)F)cc2cc(Cl)ccc21` (relative stereo), the IC50 [1] was over 100 µM.
Work on `CC(NC(=O)c1cc(-c2ccccc2)nn1C)c1ccc(N(C)S(C)(=O)=O)cc1` (racemic) yielded an IC50 [1] of 6.7 µM.
For `Cn1c(C(=O)NC(CO)c2ccccc2)cc2cc(Cl)ccc21` (racemic), the IC50 [1] was 5.2 µM.
`Cn1c(C(=O)NC(CN)c2ccccc2)cc2cc(Cl)ccc21` (racemic) gave an IC50 [1] of 39.6 µM.
In the case of `C[C@@H](NC(=O)c1cc(-c2ccccc2)nn1C)c1ccc(N2CC[C@H](O)C2)cc1`, the IC50 [1] is reported as 12.2 µM.
With `COc1ccc([C@@H](C)NC(=O)c2cc(-c3ccccc3)nn2C)cc1` the IC50 [1] was 16.2 µM.
`C[C@@H](NC(=O)c1cc(-c2ccccc2)nn1C)c1ccc(C(N)=O)cc1` showed an IC50 [1] of 3.1 µM.
Work on `C[C@H](NC(=O)c1cc(-c2ccccc2)nn1C)c1ccccc1` yielded an IC50 [1] of over 100 µM.
`C[C@@H](NC(=O)c1cc(-c2ccccc2)nn1C)c1ccc(NC(=N)N)cc1` gave an IC50 [1] of over 100 µM.
For `Cn1nc(-c2ccccc2)cc1C(=O)NC(C)(C)c1ccc(C(=O)O)cc1`, the IC50 [1] was 1.3 µM.
Molecule `COc1cc(F)c(Cl)c2cc(C(=O)N[C@H](C)c3ccc(C(=O)O)cc3)n(C)c12` has an IC50 [1] of 0.123 µM and an IC50 [2] of 1.29 µM.
`C[C@@H](NC(=O)c1cc2c(Cl)c(Cl)ccc2n1C)c1ccc(C(=O)O)cc1` showed an IC50 [1] of 0.03 µM and an IC50 [2] of 0.228 µM.
For `C[C@@H](NC(=O)c1cc(-c2ccccc2)nn1C)c1ccc(N2C(=O)CC[C@H]2C(=O)O)cc1`, the IC50 [1] was 0.1 µM.
Molecule `CCc1cc(Cl)c2cc(C(=O)N[C@H](C)c3ccc(C(=O)O)cc3)n(C)c2c1` has an IC50 [1] of 0.03 µM and an IC50 [2] of 0.301 µM.
`Cc1cc2c(cc(C(=O)N[C@H](C)c3ccc(C(=O)O)cc3)n2C)c(Cl)c1Cl` showed an IC50 [1] of 0.014 µM and an IC50 [2] of 0.095 µM.
`C[C@@H](NC(=O)c1cc2cc(Cl)ccc2n1C)c1ccc(C(=O)O)cc1` gave an IC50 [1] of 0.254 µM and an IC50 [2] of 2.37 µM.
With `Cc1cc(Cl)c2cc(C(=O)N[C@H](C)c3ccc(C(=O)O)cc3)n(C)c2c1` the IC50 [1] was 0.028 µM and the IC50 [2] was 0.246 µM.
`Cn1c(C(=O)NC(C(N)=O)c2ccccc2)cc2cc(Cl)ccc21` (racemic) showed an IC50 [1] of over 100 µM.
`Cc1ccc([C@@H](C)NC(=O)c2cc(-c3ccccc3)nn2C)cc1` gave an IC50 [1] of 23.2 µM.
`C[C@@H](NC(=O)c1cc(-c2ccccc2)nn1C)c1ccc(CO)cc1` gave an IC50 [1] of 6 µM.
Work on `C[C@@H](NC(=O)c1cc(-c2ccccc2)nn1C)c1ccc(N(C)C(=N)N)cc1` yielded an IC50 [1] of over 100 µM.
`Cc1cc2c(cc(C(=O)N[C@H](C)c3ccc(C(=O)O)cc3)n2C)c2ccccc12` gave an IC50 [1] of 0.028 µM and an IC50 [2] of 0.249 µM.
With `CCOC(=O)CS(=O)(=O)c1ccc([C@@H](CO)NC(=O)c2cc3c(Cl)c(Cl)c(C)cc3n2C)cc1` the Drug uptake [5] was “Tde”, the IC50 [6] was 2 µM and the IC50 [7] was 0.029 µM. The half-life [8] was 2.25 h, the “fold change (FC)” value [9] was “<= 140” and the half-life [10] was 4.6 h.
For `Cn1nc(-c2ccccc2)cc1C(=O)NCc1ccccc1`, the IC50 [1] was over 100 µM.
In the case of `CC(=O)NS(=O)(=O)N1CCC(NC(=O)c2cc3c(Cl)c(Cl)ccc3n2C)C(CC(=O)O)C1` (stereo not drawn), the IC50 [11] is reported as 0.01 to 1.5 µM.
For `C[C@@H](NC(=O)c1cc(-c2ccccc2)nn1C)c1ccccc1`, the IC50 [1] was 22 µM.
`C[C@@H](NC(=O)c1cc(-c2ccccc2)nn1C)c1ccc(N2CCCC2)cc1` showed an IC50 [1] of 42.1 µM.
`Cc1cc(Cl)c2cc(C(=O)N[C@H](C)c3ccc(S(=O)(=O)CC(=O)O)cc3)n(C)c2c1` showed an IC50 [1] of 0.003 µM.
`Cn1c(C(=O)NC(CCO)c2ccccc2)cc2cc(Cl)ccc21` (racemic) showed an IC50 [1] of 100 µM.
Molecule `C[C@@H](NC(=O)c1cc(-c2ccccc2)nn1C)c1ccc([N+](=O)[O-])cc1` has an IC50 [1] of 55.4 µM.
Molecule `C[C@@H](NC(=O)c1cc(-c2ccccc2)nn1C)c1ccc(C(=O)NS(C)(=O)=O)cc1` has an IC50 [1] of 0.3 µM.
`CC(=O)NS(=O)(=O)c1ccc(C(C)NC(=O)c2cc(-c3ccccc3)nn2C)cc1` (racemic) gave an IC50 [1] of 0.07 µM.
In the case of `CC(=O)NS(=O)(=O)c1ccc([C@@H](C)NC(=O)c2cc(-c3ccccc3)nn2C)cc1`, the IC50 [1] is reported as 0.1 µM.
Work on `C[C@@H](O)[C@@H](NC(=O)c1cc2cc(Cl)ccc2n1C)c1ccccc1` yielded an IC50 [1] of 12.1 µM.
`C[C@@H](NC(=O)c1cc(-c2ccccc2)nn1C)c1ccc(-c2cncnc2)cc1` showed an IC50 [1] of 21.5 µM.
`C[C@@H](NC(=O)c1cc(-c2ccccc2)nn1C)c1ccc(NS(C)(=O)=O)cc1` gave an IC50 [1] of 53.8 µM.
`C[C@H](O)[C@@H](NC(=O)c1cc2cc(Cl)ccc2n1C)c1ccccc1` gave an IC50 [1] of 11.7 µM.
With `C[C@@H](NC(=O)c1cc(-c2ccccc2)nn1C)c1ccc(S(=O)(=O)CC(=O)O)cc1` the IC50 [1] was 0.025 µM.
